Results published in ChEMBL document CHEMBL1201862, “PubChem BioAssay data set” (2004).
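Values below derive from 48-hour exposures of cells grown in 96-well plates, with endpoints linearly interpolated between the two concentrations bracketing the appropriate inhibition level. Abbreviation: GI50, concentration required for 50% inhibition of growth.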 The source made the active and inactive calls. No stated cut-off is given here; in the data, active = GI50 up to about 1.1 µM and inactive = higher.

How the values were obtained:
Assay in all cases: DTP human tumour cell line panel, 48 h
[1] = tested on: PC-3
[2] = tested on: ACHN
[3] = tested on: CAKI-1
[4] = tested on: DU-145
[5] = tested on: SNB-19
[6] = tested on: SNB-75
[7] = tested on: MDA-MB-435
[8] = tested on: SK-OV-3
[9] = tested on: SK-MEL-28
[10] = tested on: UACC-62
[11] = tested on: NCI-H23
[12] = tested on: BT-549
[13] = tested on: MDA-N
[14] = tested on: SF-268
[15] = tested on: NCI/ADR-RES
[16] = tested on: UO-31
[17] = tested on: OVCAR-4
[18] = tested on: OVCAR-8
[19] = tested on: K562
[20] = tested on: TK-10
[21] = tested on: Malme-3M
[22] = tested on: MDA-MB-231
[23] = tested on: SK-MEL-2
[24] = tested on: A498
[25] = tested on: RXF 393
[26] = tested on: SN12C
[27] = tested on: MCF7
[28] = tested on: HOP-62
[29] = tested on: M14
[30] = tested on: HL-60
[31] = tested on: SF-295
[32] = tested on: Hs-578T
[33] = tested on: OVCAR-5
[34] = tested on: HCC 2998
[35] = tested on: SK-MEL-5
[36] = tested on: SW-620
[37] = tested on: NCI-H460
[38] = tested on: SF-539
[39] = tested on: IGROV-1
[40] = tested on: HT-29
[41] = tested on: LOX IMVI
[42] = tested on: A549
[43] = tested on: HCT-15
[44] = tested on: KM12
[45] = tested on: NCI-H226
[46] = tested on: T47D
[47] = tested on: EKVX
[48] = tested on: NCI-H522
[49] = tested on: RPMI-8226
[50] = tested on: OVCAR-3
[51] = tested on: HOP-92
[52] = tested on: COLO 205
[53] = tested on: HCT-116
[54] = tested on: UACC-257
[55] = tested on: CCRF-CEM
[56] = tested on: U-251
[57] = tested on: MOLT-4
[58] = tested on: SR
[59] = tested on: 786-0

O=S(=O)(CC(Cl)c1ccccc1)c1nc2ccccc2s1 (centres undefined) was tested, and the GI50 [1] was 16 µM (inactive), the GI50 [2] was 15.5 µM (inactive) and the GI50 [3] was 2.24 µM (inactive). The GI50 [4] was 16.5 µM (inactive), the GI50 [5] was 17.8 µM (inactive) and the GI50 [6] was 14.5 µM (inactive). For the same compound, the GI50 [7] was 7.71 µM (inactive), the GI50 [8] was 18.7 µM (inactive) and the GI50 [9] was 15.7 µM (inactive). The GI50 [10] was 15.1 µM (inactive), the GI50 [11] was 8.38 µM (inactive) and the GI50 [12] was 2.98 µM (inactive). The GI50 [13] was 6.22 µM (inactive), the GI50 [14] was 13.6 µM (inactive) and the GI50 [15] was 10.7 µM (inactive). For the same compound, the GI50 [16] was 15.4 µM (inactive), the GI50 [17] was 19.8 µM (inactive) and the GI50 [18] was 7.96 µM (inactive). The GI50 [19] was 2.81 µM (inactive), the GI50 [20] was 19.5 µM (inactive) and the GI50 [21] was 9.16 µM (inactive). The GI50 [22] was 14.1 µM (inactive), the GI50 [23] was 17.8 µM (inactive) and the GI50 [24] was 20 µM (inactive). For the same compound, the GI50 [25] was 15 µM (inactive), the GI50 [26] was 10.2 µM (inactive) and the GI50 [27] was 7.48 µM (inactive). The GI50 [28] was 23.1 µM (inactive), the GI50 [29] was 2.29 µM (inactive) and the GI50 [30] was 2.11 µM (inactive). The GI50 [31] was 17.9 µM (inactive), the GI50 [32] was 27.6 µM (inactive) and the GI50 [33] was 13.7 µM (inactive). For the same compound, the GI50 [34] was 17.5 µM (inactive), the GI50 [35] was 4.01 µM (inactive) and the GI50 [36] was 5.2 µM (inactive). For the same compound, the GI50 [37] was 19.7 µM (inactive), the GI50 [38] was 10.2 µM (inactive) and the GI50 [39] was 9.12 µM (inactive). The GI50 [40] was 5.42 µM (inactive), the GI50 [41] was 1.5 µM (inactive) and the GI50 [42] was 19.5 µM (inactive). For the same compound, the GI50 [43] was 8.02 µM, the GI50 [44] was 17.2 µM (inactive) and the GI50 [45] was 8.11 µM (inactive). For the same compound, the GI50 [46] was 13.2 µM (inactive), the GI50 [47] was 15.8 µM (inactive) and the GI50 [48] was 1.85 µM (inactive). The GI50 [49] was 3.35 µM (inactive), the GI50 [50] was 8.53 µM (inactive) and the GI50 [51] was 2.88 µM (inactive). The GI50 [52] was 7.93 µM (inactive), the GI50 [53] was 9.86 µM (inactive) and the GI50 [54] was 7.8 µM (inactive). For the same compound, the GI50 [55] was 1.7 µM (inactive), the GI50 [56] was 12.5 µM (inactive) and the GI50 [57] was 2.81 µM (inactive). The GI50 [58] was 1.67 µM (inactive) and the GI50 [59] was 6.95 µM (inactive).
